Assay results reported in publication PMC6116703, “Ethenesulfonyl fluoride derivatives as telomerase inhibitors: structure-based design, SAR, and anticancer evaluation in vitro” (Journal of Enzyme Inhibition and Medicinal Chemistry, 2018).
Read-outs that look alike come from different tables or passages of the source.

How the values were obtained:
[1] = test system: human melanoma cell A375; assay: Cell proliferation (MTT) assay, A375; type: cell-based
Method: (§1) The antiproliferative activities evaluation was conducted by using a modified procedure as described in the literature. Briefly, target tumour cells were grown to log phase in RPMI 1640 medium supplemented with 10% fetal bovine serum. After diluting to 3 × 10^4 cells mL^−1 with the complete medium, 100 µL of the obtained cell suspension was added to each well of 96-well culture plates. The subsequent incubation was performed at 37 °C, 5% CO2 atmosphere for 24 h before subjecting to antiproliferation assessment. The tested samples at pre-set concentrations were added to six wells with Doxorubicin (AMD) co-assayed as a positive reference. After 48 h of exposure period, 25 µL of PBS containing 2.5 mg·mL^−1 of MTT was added to each well. After 4 h, the medium was replaced by 150 µL DMSO to dissolve the purple formazan crystals produced. The absorbance at 570 nm of each well was measured using an ELISA plate reader. The data represented the mean of three experiments in triplicate and were expressed as means ± SD using Student’s test.

[2] = test system: human hepatoma cell SMMC-7721; assay: Cell proliferation (MTT) assay, SMMC-7721; type: cell-based; details: read-out: IC50 SMMC-7721
Method: as §1

[3] = test system: human normal liver cell (L-02); assay: Proliferative inhibition assay of human normal cell L-02 (MTT); type: cell-based; details: Homo sapiens, normal liver cells
Method: as §1
(§2) In order to determine the selective cancer cell toxicity of some title compounds. We subsequently conducted a proliferative inhibition assay with human normal liver cell (L-02) and gastric mucosa cell (GES-1).

[4] = test system: gastric mucosa cell (GES-1); assay: Proliferative inhibition assay of human normal cell GES-1 (MTT); type: cell-based; details: Homo sapiens, GES1, normal gastric mucosa cells
Method: as §1, §2

[5] = target: T1, telomerase (Homo sapiens, UniProt O14746); assay: Telomerase activity TRAP-PCR-ELISA assay (A375 cell extract); type: biochemical; details: TRAP-PCR-ELISA, A375 cells, 24 h treatment
T1 construct: endogenous in cells; host or cells: A375 human melanoma cells
Method: Thirty-six compounds were tested in a search for inhibitors of telomerase activity using the TRAP-PCR-ELISA assay. In detail, the A375 cells were firstly maintained in RPMI 1640 buffer (Hyclone, Miami, FL), supplemented with 10% fetal bovineserum (GIBCO, New York, NY), streptomycin (0.1 mg/mL) and penicillin (100 IU/mL) at 37 °C in a humidified atmosphere containing 5% CO2. After trypsinisation, 5 × 10^4 cultured cells in logarithmic growth were seeded into T25 flasks (Corning, New York, NY) and cultured to allow to adherence. […] After 24 h treatment, the cells were harvested by cell scraper orderly followed by washing once with PBS. The cells were lysed in 150 µL RIPA cell lysis buffer (Santa Cruz, Santa Cruz, CA), and incubated on ice for 30 min. The cellular supernatants were obtained via centrifugation at 12,000g for 20 min at 4 °C and stored at –80 °C. The TRAP-PCR-ELISA assay was performed using a telomerase detection kit (Roche, Basel, Switzerland) according to the manufacturer’s protocol. In brief, 2 µL of cell extracts were mixed with 48 µL TRAP reaction mixtures. TRAP primers and Taq polymerase are incubated at 25 °C for 30 min. PCR was then initiated at 94 °C, 120 s for predenaturation and performed using 35 cycles each consisting of 94 °C for 30 s, 50 °C for 30 s, 72 °C for 90 s. Then 20 µL of PCR products were hybridised to a digoxigenin (DIG)-labelled telomeric repeat specific detection probe. And the PCR products were immobilised via the biotin-labelled primer to a streptavidin-coated microtiter plate subsequently. The immobilised DNA fragments were detected with a peroxidase-conjugated anti-DIG antibody and visualised following the addition of the stop regent. The microtitre plate was assessed on TECAN Infinite M200 microplate reader (Mannedorf, Switzerland) at a wavelength of 490 nm, and the final value were presented as mean ± SD[23].

[6] = test system: human breast cancer cell MDA-MB-231; assay: Cell proliferation (MTT) assay, MDA-MB-231; type: cell-based
Method: as §1

[7] = test system: human gastric cancer cells MGC-803; assay: Cell proliferation (MTT) assay, MGC-803; type: cell-based; details: read-out: IC50 MGC-803
Method: as §1

[8] = test system: human gastric cancer cells SGC-7901; assay: Cell proliferation (MTT) assay, SGC-7901; type: cell-based; details: read-out: IC50 SGC-7901
Method: as §1

[9] = Homo sapiens, A-375, 48 h, read-out: IC50 A375, antiproliferative, MTT, 48 h exposure
[10] = Homo sapiens, MDA-MB-231, 48 h, read-out: IC50 MDA-MB-231, antiproliferative, MTT, 48 h exposure
[11] = IC50 inhibitory activity against telomerase
[12] = antiproliferative, MTT, 48 h exposure, read-out: IC50 A375
[13] = antiproliferative, MTT, 48 h exposure, read-out: IC50 MDA-MB-231
[14] = antiproliferative, MTT, 48 h exposure

T1 sequence (O14746 whole entry): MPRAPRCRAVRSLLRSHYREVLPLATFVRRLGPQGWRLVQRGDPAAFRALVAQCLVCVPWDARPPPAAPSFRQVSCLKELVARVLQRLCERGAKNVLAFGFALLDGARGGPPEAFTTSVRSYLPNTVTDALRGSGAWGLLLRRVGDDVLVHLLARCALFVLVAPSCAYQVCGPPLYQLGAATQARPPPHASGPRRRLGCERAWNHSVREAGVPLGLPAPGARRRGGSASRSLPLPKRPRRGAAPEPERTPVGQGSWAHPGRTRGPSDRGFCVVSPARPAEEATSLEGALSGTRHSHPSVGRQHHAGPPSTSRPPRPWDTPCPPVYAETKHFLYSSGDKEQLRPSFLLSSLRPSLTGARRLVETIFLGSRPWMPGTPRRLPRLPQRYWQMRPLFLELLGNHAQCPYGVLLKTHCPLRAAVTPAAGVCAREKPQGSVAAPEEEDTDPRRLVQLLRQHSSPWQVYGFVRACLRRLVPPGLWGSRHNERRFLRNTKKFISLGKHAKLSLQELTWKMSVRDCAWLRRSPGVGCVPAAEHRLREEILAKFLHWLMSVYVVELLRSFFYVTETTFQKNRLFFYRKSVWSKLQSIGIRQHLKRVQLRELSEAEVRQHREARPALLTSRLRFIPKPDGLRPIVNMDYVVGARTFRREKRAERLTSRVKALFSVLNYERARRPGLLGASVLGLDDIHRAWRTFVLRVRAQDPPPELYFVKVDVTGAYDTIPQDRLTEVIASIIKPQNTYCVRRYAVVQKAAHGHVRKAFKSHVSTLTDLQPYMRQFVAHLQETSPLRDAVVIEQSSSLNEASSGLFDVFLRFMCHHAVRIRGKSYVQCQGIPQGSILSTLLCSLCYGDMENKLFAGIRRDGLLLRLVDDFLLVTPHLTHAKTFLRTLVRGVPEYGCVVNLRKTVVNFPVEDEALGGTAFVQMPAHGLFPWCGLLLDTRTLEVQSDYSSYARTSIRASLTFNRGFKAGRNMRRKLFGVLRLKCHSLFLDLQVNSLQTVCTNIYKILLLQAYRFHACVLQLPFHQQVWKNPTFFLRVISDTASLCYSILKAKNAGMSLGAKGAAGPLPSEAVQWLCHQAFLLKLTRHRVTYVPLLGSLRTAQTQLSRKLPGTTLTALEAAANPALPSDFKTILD

With `Cc1ccc(S(=O)(=O)n2c3ccccc3c3cc(/C=C/S(=O)(=O)F)ccc32)cc1` [Compound 46] the IC50 [1, 9] was 1.25 ± 0.07 µM, the IC50 ([2]; Homo sapiens, SMMC-7721, 48 h) was 5.37 ± 0.11 µM and the IC50 [3] was 2060 ± 180 µM. It also gave an IC50 [4] of 1820 ± 110 µM and an IC50 ([5]; read-out: IC50 inhibitory activity against telomerase) of 1.12 ± 0.27 µM.

Molecule `O=S(=O)(F)/C=C/c1ccc(Cl)cc1` [Compound 7] has an IC50 [1, 9] of 9.84 ± 0.78 µM, an IC50 [6, 10] of 12.3 ± 0.64 µM and an IC50 ([2]; Homo sapiens, SMMC-7721, 48 h) of 13.3 ± 0.39 µM. It also gave an IC50 ([7]; Homo sapiens, MGC-803, 48 h) of 12.9 ± 0.3 µM and an IC50 [5, 11] of 3.02 ± 0.44 µM.

Molecule `O=S(=O)(F)/C=C/c1ccccc1Br` [Compound 76] has an IC50 [1, 12] of 18 ± 1.09 µM, an IC50 [6, 13] of 36 ± 1.2 µM and an IC50 [8, 14] of 50.2 ± 1.79 µM.

`COc1cc(/C=C/S(=O)(=O)F)cc(OC)c1` [Compound 67] was tested, and the IC50 [1, 9] was 8.29 ± 0.42 µM, the IC50 [6, 10] was 12.1 ± 0.37 µM and the IC50 ([2]; Homo sapiens, SMMC-7721, 48 h) was 15 ± 0.6 µM. The IC50 ([8]; Homo sapiens, SGC-7901, 48 h) was 50.3 ± 1.17 µM, the IC50 ([7]; Homo sapiens, MGC-803, 48 h) was 16.1 ± 0.82 µM and the IC50 [5, 11] was 1.87 ± 0.47 µM.

With `O=S(=O)(F)/C=C/c1cccs1` [Compound 40] the IC50 [1, 12] was 6.73 ± 0.5 µM, the IC50 [6, 13] was 18.3 ± 0.8 µM and the IC50 [2, 14] was 35.6 ± 0.55 µM. For the same molecule, the IC50 [8, 14] was 51.3 ± 2.55 µM.

With `CC(=O)c1cccc(/C=C/S(=O)(=O)F)c1` [Compound 21] the IC50 [1, 12] was 16.6 ± 0.91 µM, the IC50 [6, 13] was 23.1 ± 2.78 µM and the IC50 [2, 14] was 11.8 ± 0.6 µM. The IC50 [8, 14] was 30.8 ± 2 µM.

Molecule `O=S(=O)(F)/C=C/c1ccc(Br)cc1` [Compound 8] has an IC50 [1, 9] of 9.12 ± 0.82 µM, an IC50 [6, 10] of 17.5 ± 1.77 µM and an IC50 ([2]; Homo sapiens, SMMC-7721, 48 h) of 10.7 ± 0.8 µM. For the same molecule, the IC50 ([7]; Homo sapiens, MGC-803, 48 h) was 17.2 ± 0.41 µM and the IC50 [5, 11] was 4.33 ± 0.77 µM.

Work on `O=S(=O)(F)/C=C/c1ccccc1` [Compound 1] yielded an IC50 [1, 9] of 5.21 ± 0.39 µM, an IC50 [6, 10] of 8.67 ± 0.61 µM and an IC50 [3] of 1970 ± 200 µM. It also gave an IC50 [4] of 1450 ± 170 µM and an IC50 [5, 11] of 2.41 ± 0.51 µM.

`COc1cccc2c1C(=O)c1c(O)c3c(c(O)c1C2=O)C[C@@](O)(C(=O)CO)C[C@@H]3O[C@H]1C[C@H](N)[C@H](O)[C@H](C)O1` [AMD, Doxorubicin, reference compound] was tested, and the IC50 ([1]; Homo sapiens, A-375, 48 h, antiproliferative, MTT, 48 h exposure, read-out: IC50 A375) was 0.52 ± 0.14 µM, the IC50 ([6]; Homo sapiens, MDA-MB-231, 48 h, antiproliferative, MTT, 48 h exposure, read-out: IC50 MDA-MB-231) was 0.81 ± 0.11 µM and the IC50 ([2]; Homo sapiens, SMMC-7721, antiproliferative, MTT, 48 h exposure) was 1.05 ± 0.09 µM. For the same molecule, the IC50 ([8]; Homo sapiens, SGC-7901, antiproliferative, MTT, 48 h exposure) was 0.92 ± 0.08 µM and the IC50 ([7]; Homo sapiens, MGC-803, antiproliferative, MTT, 48 h exposure) was 0.67 ± 0.08 µM.

`O=Cc1ccc(/C=C/S(=O)(=O)F)cc1` [Compound 15] gave an IC50 [1, 9] of 13.1 ± 0.7 µM, an IC50 [6, 10] of 3.64 ± 0.22 µM and an IC50 [3] of 2110 ± 190 µM. The IC50 [4] was 2500 ± 220 µM and the IC50 [5, 11] was 1.87 ± 0.41 µM.

For `O=S(=O)(F)/C=C/c1ccc(OC(F)(F)F)cc1` [Compound 9], the IC50 [1, 12] was 24.1 ± 0.99 µM, the IC50 [6, 13] was 36.5 ± 2.56 µM and the IC50 [2, 14] was 9.04 ± 0.99 µM. It also gave an IC50 [7, 14] of 38.6 ± 1.22 µM.

Work on `CS(=O)(=O)c1ccc(/C=C/S(=O)(=O)F)cc1` [Compound 66] yielded an IC50 [1, 12] of 8.56 ± 0.49 µM, an IC50 [6, 13] of 30.3 ± 1.22 µM and an IC50 [2, 14] of 52 ± 1.7 µM. The IC50 [7, 14] was 19.6 ± 1.17 µM.

`Cc1ccc(/C=C/C=C/S(=O)(=O)F)cc1` [Compound 49] showed an IC50 [1, 12] of 32.8 ± 1.44 µM, an IC50 [6, 13] of 35.2 ± 1.4 µM and an IC50 [2, 14] of 48.5 ± 1.65 µM. It also gave an IC50 [8, 14] of 49.79 ± 0.47 µM.

With `O=S(=O)(F)/C=C/c1ccc(O)cc1` [Compound 33] the IC50 [1, 12] was 4.96 ± 0.51 µM, the IC50 [6, 13] was 19 ± 0.65 µM and the IC50 [2, 14] was 26.2 ± 0.39 µM. For the same molecule, the IC50 [7, 14] was 35.9 ± 0.79 µM.

Work on `CCc1ccc(/C=C/S(=O)(=O)F)cc1` [Compound 2] yielded an IC50 [1, 12] of 22.8 ± 0.71 µM, an IC50 [6, 13] of 58.6 ± 1.78 µM and an IC50 [2, 14] of 28.5 ± 1.47 µM. It also gave an IC50 [7, 14] of 28.6 ± 1.27 µM.
